According to patent US11634434B2, “Bifunctional alpha-synuclein binding agents and uses thereof” (University of Saskatchewan, priority 2016, dated 2023):
Like-named read-outs stand apart in the source and are kept apart here.

What was measured:
[1] = system: alpha-synuclein-GFP aggregation in yeast strain 2AS; format: cell-based; settings: 1 micromolar compound, 5 mM galactose; for AS-GFP foci / fluorescence pattern: up to 12 hours
Protocol: (§1) Third, the drugs were assayed in a yeast model of Parkinson's Disease, which expresses an alpha-synuclein-Green Fluorescent Protein (AS-GFP) construct under the control of a galactose promoter.
For Analysis of AS-GFP distribution, the 2AS strain was grown overnight in drop-out media. After normalization of culture density, galactose was administered to a final concentration of 5 mM. […] For the yeast recovery assay, yeast cells were obtained after 6 hours induction with 5 mM galactose concentration, washed in galactose free media and the compounds were added to a final concentration of 1 micromolar in a 2 mL reaction mixture. The culture was incubated at 30° C. for 3, 6, and 9 hour intervals. Images were obtained at each interval using an Olympus Infinity (BX51) fluorescence microscope at 100× magnification.

[2] = system: preformed alpha-synuclein-GFP foci in yeast strain 2AS; assay: Yeast recovery assay, fluorescence microscopy of preformed AS-GFP foci; format: cell-based; settings: for effect on preformed large foci of alpha-synuclein: compound added 6 hours after induction with 5 mM galactose
Protocol: For Analysis of AS-GFP distribution, the 2AS strain was grown overnight in drop-out media. After normalization of culture density, galactose was administered to a final concentration of 5 mM. Fluorescence images were obtained at zero time, 3 hours, 6 hours, 9 hours and 12 hours. For the yeast recovery assay, yeast cells were obtained after 6 hours induction with 5 mM galactose concentration, washed in galactose free media and the compounds were added to a final concentration of 1 micromolar in a 2 mL reaction mixture. The culture was incubated at 30° C. for 3, 6, and 9 hour intervals. Images were obtained at each interval using an Olympus Infinity (BX51) fluorescence microscope at 100× magnification.

[3] = system: yeast strain 2AS (2 copies of AS-GFP gene); format: cell-based
Protocol: as §1
Construction of the 1AS and 2AS strains has been described in detail previously.^55 Strains were grown in YPD supplemented with 30 μg/ml of all amino acids. The OD600 was adjusted to 0.05 in drop-out media (no uracil) at 30° C. Drugs were dissolved in methanol at 0.01 micromolar, 0.1 micromolar, 1 micromolar or 10 micromolar followed by addition of 100 micromolar or 5 mM galactose to a final volume of 10 mL.

alpha-synuclein [4] = target: T1, alpha-synuclein (Homo sapiens, UniProt P37840); assay: Nanopore analysis of alpha-synuclein (blockade current histograms); format: binding; settings: 1 micromolar alpha-synuclein, 20 micromolar compound; for nanopore profile (bumping peak / binding): FIG. 3
Protocol: The bifunctional molecules were characterized by four different methods. […] If the compound causes a more compact conformation, then the alpha-synuclein can no longer translocate and it simply bumps into the pore giving rise to a very small change in the blockade current.^44-46
(§2) Nanopore analysis and isothermal titration calorimetry were performed as described previously.^21,54

alpha-synuclein [5] = target: T1, alpha-synuclein; assay: Isothermal titration calorimetry (ITC) binding to alpha-synuclein; settings: for increase of Ka for a 10-fold decrease in ionic strength: 100 mM KCl versus 1.0M KCl; for # Binding sites: Table 2; for Bind to N and C?: binds to both N and C portions of alpha-synuclein; for binding constants as measured by ITC, order of magnitude: summary statement; for Kd: read-out: Ka (converted); as to Bind to N and C?: key: Y indicates yes; N indicates no
Protocol: as §2

alpha-synuclein [6] = target: T1, alpha-synuclein; settings: 10 micromolar compound, shown previously; cited from earlier work
[7] = system: alpha-synuclein in substantia nigra; assay: Immunohistochemistry of alpha-synuclein in substantia nigra of ASIA-treated rats; format: in vivo, rat; settings: 7 days of chronic injections
Protocol: (§3) male Sprague-Dawley rats are used (200 g-300 g). All animals are handled ethically following approved protocols. For the first round of studies, rats are divided into five treatment groups:
(§4) Rats are subjected to 7-day chronic injection of 3 mg/kg of each test compound, and a forced swim test is conducted after the seventh day to measure motor deficits. […] For a second round of studies, rats are divided into four treatment groups, and the same experiments were repeated:
(§5) Tissue sections of substantia nigra from each of the treatment groups in the rat studies were evaluated for the presence of tyrosine hydroxylase, DNA (using the nuclear stain DAPI) and alpha-synuclein using immunohistochemistry. After behavioural tests were completed, the rats were euthanized, perfused and fixed in 4% paraformaldehyde. 40 μm brain slices were utilized for the immunohistochemistry procedure. Anti-Tyrosine Hydroxylase—a primary antibody for tyrosine positive neurons, host species rabbit, Millipore, Sigma Aldrich. DAPI—nuclear stain already pre-conjugated (NucBlue Fixed Cell Stain ReadyProbe reagent, Thermo Fisher Scientific). Anti-Alpha Synuclein—primary antibody for Anti-Synuclein, host species mouse, Abcam. Primary antibodies were diluted 1:500. Alexa Fluoro 488 Donkey anti-rabbit IgG—secondary antibody with fluorescent tag, Invitrogen, Thermo Fisher Scientific. Alexa Fluoro 594 Goat anti-mouse IgG—secondary antibody with fluorescent tag, Life Technologies, Thermo Fisher Scientific. Secondary antibodies were diluted 1:1000. Thioflavin S—stain for alpha-synuclein aggregates, Sigma Aldrich. Thioflavin S stock concentration at 5 mg/ml. Final dilution 1:100.
Tyrosine hydroxylase is a marker for dopaminergic neurons and is used to confirm that the desired cells are being imaged. DAPI (4′,6-diamidino-2-phenylindole) is a stain that binds to A-T rich regions in DNA, and is used to identify cell nuclei. Thioflavin S is used to stain aggregated proteins such as amyloid plaques. A higher level of staining with thioflavin S is indicative of a higher degree of protein aggregation.

[8] = system: male Sprague-Dawley rats with increased alpha-synuclein expression; assay: Forced swim test in ASIA-treated rats; format: in vivo, rat; settings: for success in forced swim test / vigor in forced swim test: last three minutes of the test
Protocol: as §3, §4
The forced swim test is carried out by immersing the rat in water that is sufficiently deep to force the rat to swim. The forced swim test is scored based on the following criteria:
Vigor and success are measures of motor function. Immobility is thought to be a measure of depression.^59 Based on videos of the forced swim test, the amount of time that each rat was motionless was calculated as a form of scoring depression for each treatment. Statistical analysis was carried out using an ordinary one-way ANOVA and Tukey multiple comparisons test.

yeast strain 2AS = assay: Yeast recovery assay, growth of 2AS after 6 hours galactose induction; format: cell-based
[9] = system: protein aggregation in substantia nigra; assay: Thioflavin S staining of substantia nigra of ASIA-treated rats; format: in vivo, rat
Protocol: as §4
as §5, with “Thioflavin S stock concentration at 5 mg/ml. Final dilution 1:100.” left out

[10] = 1 micromolar compound + 5 mM galactose
[11] = ITC in 1.0M KCl, bifunctional molecules (or monomers) per alpha-synuclein molecule, best fit
[12] = 1 micromolar compound added after 6 hours of 5 mM galactose and wash

SMILES | AS-GFP foci / fluorescence pattern [1] | effect on preformed large foci of alpha-synuclein [2] | growth of 2AS yeast [3, 10] | major peak, blockade current (alpha-synuclein [4]) [pA] | nanopore profile (bumping peak / binding) (alpha-synuclein [4]) | increase of Ka for a 10-fold decrease in ionic strength (alpha-synuclein [5]) | # of Binding sites (alpha-synuclein [5]; ITC in 100 mM KCl) | Ka (alpha-synuclein [5]; ITC in 100 mM KCl) [M⁻¹] | Ka (alpha-synuclein [5]; ITC in 1.0M KCl) [M⁻¹] | # of Binding sites (alpha-synuclein [5]; [11]) | # Binding sites (alpha-synuclein [5]) | Ka (alpha-synuclein [5]; Table 2, ITC) [M⁻¹] | Bind to N and C? (alpha-synuclein [5]) | binding constants as measured by ITC, order of magnitude (alpha-synuclein [5]) | formation of foci delayed until (time after induction) [1] [h] | major peak, blockade current, compound alone (alpha-synuclein [6]) | level of alpha-synuclein staining in substantia nigra ([7]; ASIA + compound 3 mg/kg) | immobility in forced swim test ([8]; ASIA + compound 3 mg/kg) | success in forced swim test ([8]; ASIA + compound 3 mg/kg) | vigor in forced swim test ([8]; ASIA + compound 3 mg/kg) | further results
Cn1c(=O)c2c(nc(CCCCCCN3CCCC3c3cccnc3)n2C)n(C)c1=O (racemic) [Compound C8-6-N] | similar | can cause preformed large foci of alpha-synuclein to dissipate | essentially normal | −55 | do not have a significant bumping peak | approximately 10 fold | 1 | 480000 | 43000 | 1 | 1 | 43000 | Y | ~10^5 M^−1 | – | – | – | – | – | – | –
CN(C)C(=N)N=C(N)N [Metformin, metformin, reference compound] | – | – | – | – | – | – | – | – | – | 1 | 3 | – | N | – | 9 | about −65 pA | – | – | – | – | growth of 2AS yeast ([3]; 1 micromolar compound + 100 micromolar galactose): rate of growth which is similar to that shown by the WT strain; Kd (alpha-synuclein [5]; ITC in 1.0M KCl): 0.109 µM; Kd (alpha-synuclein [5]; Table 2, ITC): 0.111 µM
Cn1c(=O)c2c(ncn2C)n(C)c1=O [Caffeine, caffeine, reference compound] | – | – | – | – | – | – | – | – | – | 1 | 1 | – | Y | – | 9 | about −76 pA | – | – | – | – | –
Cn1c(=O)c2c(nc(CCCCCCNC3CCc4ccccc43)n2C)n(C)c1=O (racemic) [Compound C8-6-I] | by 12 hours the peripheral halo is restored | can cause preformed large foci of alpha-synuclein to dissipate | essentially normal | −68 | do not have a significant bumping peak | approximately 10 fold | 1 | 560000 | 53000 | 1 | 1 | 53000 | Y | ~10^5 M^−1 | – | – | reduced | improved | improved success | improved vigor | level of alpha-synuclein staining in substantia nigra ([7]; ASIA + compound 5 mg/kg): reduced; fluorescence pattern after compound addition to cells with preformed foci [2, 12]: By 9 hours, the peripheral location is restored and the halo reappears; growth of 2AS yeast ([3]; 0.1 micromolar compound + 5 mM galactose): normal growth; immobility in forced swim test ([8]; ASIA + compound 5 mg/kg): further improved; success in forced swim test ([8]; ASIA + compound 5 mg/kg): further improved success; vigor in forced swim test ([8]; ASIA + compound 5 mg/kg): further improved vigor; time of resumption of growth (yeast strain 2AS; [12]): ~8 h; time of resumption of growth (yeast strain 2AS; 10 micromolar compound added after 6 hours of 5 mM galactose and wash): about 6 hours; degree of protein aggregation, thioflavin S staining ([9]; ASIA + compound 3 mg/kg): decreases the degree of protein aggregation; degree of protein aggregation, thioflavin S staining ([9]; ASIA + compound 5 mg/kg): decreases the degree of protein aggregation
NC1Cc2ccccc2C1 [Compound 2-aminoindan, 2-aminoindan, reference compound] | – | – | – | – | – | – | – | – | – | – | – | – | – | – | – | – | considerably increased | significantly increases immobility | decreased success | decreased vigor | –
